We go through one molecule from patent publication US20230322805A1, “NOVEL PYRIMIDODIAZEPINE DERIVATIVES OR USES THEREOF” (SPARK BIOPHARMA, INC., priority 2020, published 2023).

Like-named read-outs stand apart in the source and are kept apart here.

Series [1] concerns BiFC-tau Venus HEK293 cells (tau aggregation, hTau441). The series is described as follows: BiFC-tau Venus HEK293 cell assay monitoring tau aggregation under thapsigargin. It counts as cell-based, human. How it is done: Phenotype-based screening to monitor tau assembly was performed using BiFC-tau Venus HEK293 cells in a high-throughput manner. Cells were seeded in 384-well plates at a density of 2.8×10^3 cells/well in 40 μL medium for 24 hours. Cells were treated with 80 nM thapsigargin (Sigma-Aldrich) in 10 μL medium and then ˜ 3,000 pDOS library compounds (10 μM), including compounds according to the present invention, using a 0.1 μL pinning tool. For knockdown experiments, cells were transfected with 5 or 10 nM siRNA using Lipofectamine RNAiMAX and incubated for 48 hours before thapsigargin treatment. […] Plates were scanned on an INCell Analyzer 2000 (GE Healthcare) at λex/λem=490/525 nm for Venus fluorescence (for the FITC channel) and λex/λem=350/455 nm for nuclei (for the DAPI channel). Bright-field images were taken to confirm cell morphology, and images were analyzed to quantify Venus intensity per cell using developer software (GE Healthcare).
1-1. According to the method described in Examples 1-15 above, the expression of Venus-based bimolecular fluorescence complemented-tau (BiFC-tau) was confirmed using HEK293 human embryonic kidney cells, thereby phenotyping the phenotype-based screening was performed.
The N-terminal Venus (VN173) and C-terminal Venus (VC155) fragment sequences are fused with the full-length human tau (hTau441) sequence to form the BiFC-tau Venus HEK293 cell system. Soluble tau dimers can be measured by monitoring the turn-on/off signal of Venus fluorescence through co-expression of the two fused vectors, hTau441-VN173 and hTau441-VC1 55.
As a stimulator of tau aggregation, thapsigargin (TG; an ER stress inducer), a direct inhibitor of sarco/endoplasmic reticulum Ca2^+-ATPase, was used. This disrupts calcium homeostasis. Thapsigargin treatment induces tau dimerization (tau aggregation), which can be confirmed by BiFC-tau Venus fluorescence turn-on.

Series [2] can be described thus: Pharmacokinetics test in male ICR mice. The settings on record: CD-1 (ICR), mouse, plasma, 5 mg/kg; for half-life: male. It counts as in vivo. How it is done: After intravenous or intraperitoneal administration (5 mg/kg, 3.3 mL/kg) of the compound (SB1617, 5% DMSO/[…]) according to the present invention to CD-1 (ICR) male mice (7 weeks old, KOATECH, Korea), blood was collected at designated time points from the orbital venous plexus. The concentration of the compound (SB1617) according to the present invention was examined from the plasma samples using an LC-MS/MS analyzer (Agilent 1200, 4000 Qtrap). Pharmacokinetic parameters were obtained from plasma concentration-time plots using WinNonlin software (Pharsight, USA).
6-1. In order to evaluate the suitability of the compound (SB1617) according to this invention in vivo, pharmacokinetic properties and blood-brain barrier penetration properties were identified using male ICR mice according to the methods described in Examples 1-15 and 1-16.

In the next series the target is T1, DNAJC3 (Homo sapiens, UniProt Q13217).
T1 sequence (Q13217 32-504): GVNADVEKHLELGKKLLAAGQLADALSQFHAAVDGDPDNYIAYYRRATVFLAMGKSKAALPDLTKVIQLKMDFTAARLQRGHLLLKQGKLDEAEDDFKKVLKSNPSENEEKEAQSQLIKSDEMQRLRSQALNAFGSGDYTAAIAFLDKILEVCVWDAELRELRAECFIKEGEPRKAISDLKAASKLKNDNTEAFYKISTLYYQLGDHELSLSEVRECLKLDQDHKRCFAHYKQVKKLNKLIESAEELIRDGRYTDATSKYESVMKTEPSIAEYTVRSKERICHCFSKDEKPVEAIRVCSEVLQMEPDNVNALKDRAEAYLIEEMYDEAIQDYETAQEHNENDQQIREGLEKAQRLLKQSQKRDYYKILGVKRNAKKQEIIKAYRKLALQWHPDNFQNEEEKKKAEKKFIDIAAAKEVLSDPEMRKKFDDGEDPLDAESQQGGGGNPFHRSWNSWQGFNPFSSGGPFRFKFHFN
Description: TS-FITGE thermal stability shift. Type of series: binding. More on the design: endogenous in cells; host or cells: HEK293 BiFC-tau cells (TS-FITGE, CETSA). The settings on record: 10 μM, 200 nM thapsigargin, 3 hours, HEK293 BiFC-tau cells. How it is done: HEK293 BiFC-tau cells were treated with dimethylsulfoxide (DMSO, 0.1%) and a compound according to the present invention (10 μM) in the presence of thapsigargin (200 nM) for 3 hours. The cell suspension was heated at the indicated temperature range for 3 minutes and then at 25° C. for 3 minutes. The heated cells were washed with PBS and resuspended in lysis buffer A (0.4% NP-40 in PBS supplemented with protease inhibitor cocktail). For cell lysis, cell suspensions were freeze-thawed in liquid nitrogen three times. The cell lysate was washed by centrifugation at 20000 g, 4° C. for 20 minutes. Protein concentration of the soluble fraction was quantified by Pierce BCA protein assay. After precipitating 50 μg of protein with cold acetone, it was centrifuged at […] and 4° C. for 7 minutes. The residual pellet was resuspended in 10 μl of conjugation buffer (30 mM Tris-HCl at pH 8.6, 30 mM thiourea, 7 M urea and 4% w/v CHAPS). 1 μl of 0.4 mM Cy2-N-hydroxysuccinimide(Cy2-NHS) (for DMSO-treated group), Cy3-NHS (for SB1607-treated group) or Cy5-NHS (for SB1617-treated group) was mixed with the protein and incubated at 4° C. for 45 minutes. […] Protein spot locations and fluorescence signals were analyzed with DeCyder 2D software ver. […]

`CN(Cc1ccc(Cl)cc1)c1ncnc2c1[C@@H]1OC[C@H](CN2)N1S(=O)(=O)c1ccc([N+](=O)[O-])cc1` [Compound 117]: the “BiFC-Venus fluorescence induced by thapsigargin (FITC channel image)” value in series [1] (10 μM SB1617 with 80 nM thapsigargin, 24 hours) was “suppresses BiFC-Venus fluorescence”. Further, the IC50 in series [1] (Homo sapiens, HEK293, inhibition of BiFC-tau Venus fluorescence, 80 nM thapsigargin, table head prints no unit, μM, read-out: BiFC-tau intensity (IC50)) worked out at 1.9 µM. Also, the activity at 10 µM in series [1] (Homo sapiens, HEK293-BiFC-tau-Venus cells co-treated with 10 μM compound and 80 nM thapsigargin for 24 hours, read-out: BiFC-tau intensity (%)) was determined as 36%. In addition, the “change in Venus fluorescence intensity” value in series [1] (various concentrations with 80 nM TG for 20 hours) was “dose dependent”. Also, in series [2] (ip, I.P.), the AUC(0-inf) turned out to be 5650 ± 3320 ng·h/mL, the AUC(0-t) came out at 6070 ± 2810 ng·h/mL, the concentration peaked (Cmax) at 857 ± 339 ng/mL and the Tmax came to 1.67 ± 2.02 h. In addition, in series [2] (iv, I.V.), the AUC(0-inf) was determined as 4490 ± 150 ng·h/mL, the AUC(0-t) stood at 4190 ± 112 ng·h/mL and the clearance was 18.7 mL/min/kg. In series [2] (iv, I.V., read-out: Vss), the Vd came out at 6.27 ± 0.928 L/kg. The half-life in series [2] (ip, I.P., read-out: T1/2 (converted)) is 6.57 ± 0.0563 h. Besides, the half-life in series [2] (ip, intraperitoneal injection, read-out: half-life (converted)) was about 6.6 h. Besides, the half-life in series [2] (iv, I.V., read-out: T1/2 (converted)) is 5.51 ± 1.86 h. Further, at DNAJC3, the “thermal stability of protein (TS-FITGE)” value was “thermal stability of the protein was improved”.

By IC50 is commonly meant the concentration at which inhibition is half-maximal. By AUC(0-inf) is commonly meant total exposure, with the tail of the curve extrapolated. A low value points to less exposure. The AUC(0-t) is the area under the concentration-time curve up to a stated or last time point. Read a low AUC(0-t) as less exposure. The term Cmax denotes the peak of the concentration-time curve. Broadly, the Tmax is the time from dosing to the highest level. A word on the clearance: it is the rate of elimination divided by the concentration. A high value points to efficient removal.
